Experiment: xn = mol fraction of the nth substance listed
Conditions: 101 kPa

CCCC[n+]1ccn(C)c1.F[P-](F)(F)(F)(F)F + Cc1ccccc1
viscosity [mPa·s]
Conditions	x2 = 0.05	x2 = 0.1	x2 = 0.2	x2 = 0.3	x2 = 0.4
298.15 K	–	149.5	111.5	67.3	42.9
300.65 K	126.7	99.9	–	50.1	–
303.15 K	98	–	55.7	–	24.6
305.65 K	79	57.3	44.2	–	20.42
308.15 K	65.7	47	36.8	–	17.61
310.65 K	56	–	31.7	24	15.61
313.15 K	48.7	34.7	27.9	21.33	–
315.65 K	43.1	30.8	25.1	19.23	12.97
318.15 K	38.7	27.8	22.96	–	12.06
320.65 K	35.1	25.4	21.23	–	–
323.15 K	32.2	23.49	19.82	15.09	10.71
325.65 K	29.8	21.91	18.66	14.15	10.21
328.15 K	–	20.59	17.68	13.36	9.77
330.65 K	–	19.47	16.85	12.68	9.4
333.15 K	24.5	18.52	16.14	12.09	9.08
335.65 K	23.16	17.69	15.52	11.58	–
338.15 K	–	16.96	14.98	11.13	8.56

Reference: a compilation of properties of binary mixtures (doi:10.4028/www.scientific.net/amr.864-867.125)
